Read-outs that look alike come from different tables or passages of the source.
Tests used:
Format in all cases: cell-based, human
[1] = test system: pERK, SW620 cells; assay: Phospho-ERK inhibition, AlphaLISA p-ERK 1/2, SW620; conditions: Table D-2; for IC50: SW620 (KRAS-G12V); for pERK value in parentheses, % inhibition (Ymin): SW620, lowest point of IC50 curve
Protocol: (§1) All cancer cell lines (A375, A101D, A2058, RKO, HT29 SK-MEL 30, IPC298, HepG2, HCT-116, Lovo, SW620, SW480, NCI-H358, NCI-H2122, Calu-6, NCIH2087, NCIH1755, NCIH1666 and Mewo) were obtained from ATCC and cultured in RPM1-1640 medium (Gibco) supplemented with 5% heat inactivated fetal bovine serum (FBS, Wisent) at 37° C. under 5% CO2. Cells were maintained in T175 flasks (Greiner). They were passaged by removing the culture medium, washing once in 10 mL of room temperature Phosphate Buffered Saline (PBS; Wisent) and incubating at 37° C. with 2 mL of 0.05% Trypsin (Thermo-Fisher). Trypsin was then inactivated by adding complete growth medium and the cells were then replated in a T175 culture dish at the appropriate dilution. All cell lines were routinely tested for mycoplasma contamination. Tissue type and mutational status of each cell line can be found in Table B.
(§2) (c) Measurement of Phospho-ERK Inhibition in Cultivated Human Cancer Cell Lines by the AlphaLISA® SureFire® Ultra™ p-ERK 1/2 (Thr2O2/Tyr204)
(§3) AlphaLISA® SureFire® Ultra™ p-ERK 1/2 (Thr202/Tyr204) analysis was conducted on cells plated in 100 μL of complete RPMI-1640 growth medium in 96-well flat-bottomed transparent dishes (Costar) at a density indicated in Table C. Cells were maintained overnight at 37° C. under 5% CO2 before treatment with compounds' dilution series for one hour. The cell density in cells/cm^2 corresponds to cell number divided by the area of one well of a 96-well plate (0.143 cm^2).
(§4) In a dilution series 100 μL/well of test substance dilution prepared in complete RPMI-1640 growth media was added to the cells. The dilution series is selected so that ten concentrations cover a range from 10 μM to 0.33 nM. If necessary, the initial concentration of 10 μM is increased to 100 μM or lowered to 1 μM (as in the case of A375 and H1666 cells, which are generally more sensitive to the compounds) and further dilution is carried out accordingly. The final concentration of DMSO in the assay is set at 0.5%.
(§5) After treatment, media was removed, and cells were lysed in 50 μL of 1× AlphaScreen Ultra Lysis Buffer (Perkin Elmer). The AlphaLISA® SureFire® Ultra™ p-ERK 1/2 (Thr202/Tyr204) (PerkinElmer) reactions were performed with 5 μL of cell lysate according to the manufacturer's specifications in 384-well proxyplates (Perkin Elmer) followed by overnight incubation of the reactions at room temperature in a humidified chamber. After completion of the reactions, the signals were recorded on an EnVision plate reader (Perkin Elmer) using built in AlphaLISA® settings.
(§6) The effect of each compound dilution on the pERK signal was expressed in % inhibition and calculated as follows. An internal 100% inhibition control (1 μM trametinib, cat. No. HY-10999; MedChem Express; CAS No. 871700-17-3) was included in each plate and used as a measure of pERK background. First, the value obtained for trametinib was subtracted from each data point. The average of DMSO (vehicle) controls (set as 0% inhibition) was established and used to calculate % inhibition:
(§7) The ability of each compound to inhibit pERK signal was expressed as an IC50 value obtained by plotting the inhibition values for each data point of a dilution series and fitting the obtained curves using a log(agonist) versus response—variable slope (four parameters) function using GraphPadPrism (V7.0) or Dotmatics Screening Ultra platform.
(§8) When present, paradoxical pERK induction is inferred from the negative % inhibition values observed in the pERK IC50 curves of a compound.

[2] = test system: pERK, NCI-H2122 cells; assay: Phospho-ERK inhibition, AlphaLISA p-ERK 1/2, NCI-H2122; conditions: Table D-2; for IC50: NCI-H2122 (KRAS-G12C); for pERK value in parentheses, % inhibition (Ymin): NCI-H2122, lowest point of IC50 curve
Protocol: as §1, §2, §3, §4, §5, §6, §7, §8

[3] = test system: pERK, SW480 cells; assay: Phospho-ERK inhibition, AlphaLISA p-ERK 1/2, SW480; conditions: Table D-2; for IC50: SW480 (KRAS G12D); for pERK value in parentheses, % inhibition (Ymin): SW480, lowest point of IC50 curve
Protocol: as §1, §2, §3, §4, §5, §6, §7, §8

[4] = test system: NCI-H2122 cells; assay: Proliferation inhibition, CellTiter-Glo, NCI-H2122; conditions: Table D-2, NCI-H2122 (KRAS-G12C), 3 days, read-out: Prolif. (proliferation EC50)
Protocol: as §1
(§9) CellTiter-Glo® viability analysis was conducted on cells plated in 100 μL of complete RPMI-1640 growth medium in 96-well flat-bottomed white opaque plates (Greiner or Croning) at a density indicated in Table E (for each CCL, number of cells plated per well of a 96-well plate to perform the CellTiter-Glo® cell viability assay). The cell density in cells/cm^2 would correspond to cell number divided by the area of one well of a 96-well plate (0.32 cm^2). […]
(§10) After 3 days of incubation, the growth media were removed by aspiration and 60 μL of diluted CellTiter-Glo® reagent (10 μL CellTiter-Glo® reagent+50 μL of PBS) was added to each well. […] Luminescence signals were then acquired on a Synergy Neo2 plate reader (Biotek).
(§11) The effect of each compound dilution on the proliferation of cancer cell lines was expressed in % inhibition and calculated as follows. […]
as §7, with “proliferation” for “pERK signal”, “a EC50” for “an IC50”, “effect” for “inhibition”

[5] = test system: NCIH2087 cells; assay: Proliferation inhibition, CellTiter-Glo, NCIH2087; conditions: Table D-2, NCIH2087 (BRAF L597V; KRAS Q61K), 3 days, read-out: Prolif. (proliferation EC50)
Protocol: as §1, §9, §10, §11
as §7, with “proliferation” for “pERK signal”, “a EC50” for “an IC50”, “effect” for “inhibition”

IC50 ([1]; Homo sapiens, SW-620) | IC50 ([2]; Homo sapiens) | IC50 ([3]; Homo sapiens) | EC50 ([4]; Homo sapiens, 72 h) | IC50 [1] | IC50 [2] | IC50 [3] | EC50 [4] | SMILES | pERK value in parentheses, % inhibition (Ymin) [1] | pERK value in parentheses, % inhibition (Ymin) [2] | pERK value in parentheses, % inhibition (Ymin) [3] | EC50 ([5]; Homo sapiens, NCI-H2087, 72 h) | EC50 [5]
0.03 to 0.3 µM | 0.03 to 0.3 µM | 0.03 to 0.3 µM | 0.3 to 3 µM |  |  |  |  | Cc1ccc2c(Nc3cccc(Cl)c3F)nccc2c1NC(=O)c1csc2c(N)ncnc12 [Belvarafenib, reference compound] | (−151) % | (−9) % | (−100) % | < 0.3 µM | 
 |  |  |  | 0.03 to 0.3 µM | 0.03 to 0.3 µM | 0.03 to 0.3 µM | < 0.3 µM | Cc1c(F)cccc1S(=O)(=O)Nc1ccc(F)c(Nc2ncnc3sc(-n4cc(C(=O)N5C6CCC5CN(C)C6)c5ccccc54)nc23)c1F [Example 44] | (3) % | (−11) % | (−4) % |  | < 0.3 µM
 |  |  |  | 0.03 to 0.3 µM | 0.03 to 0.3 µM | 0.03 to 0.3 µM | 0.3 to 3 µM | N#CC1(c2cccc3c2ncn3-c2nc3c(Nc4c(F)ccc(NS(=O)(=O)c5cccc(Cl)c5Cl)c4F)ncnc3s2)CC1 [Example 122] | (−6) % | (27) % | (5) % |  | < 0.3 µM
